Measured values published in US9340542B2, “Propellane-based compounds and the use thereof” (Purdue Pharma L.P., priority 2013, dated 2016).
Where two headings read alike, the source gives them in different places.

Experiments:
μ-opioid receptor [1] = target: T1, μ-opioid receptor (Homo sapiens (Human), UniProt P35372); experiment: μ-opioid receptor radioligand dose-displacement binding assay ([3H]-diprenorphine); settings: binding affinity
Protocol: Radioligand dose-displacement binding assays for μ-opioid receptors used 0.3 nM [^3H]-diprenorphine (Perkin Elmer, Shelton, Conn.), with […] membrane protein/well in a final volume of 500 μl binding buffer (10 mM MgCl2, 1 mM EDTA, 5% DMSO, 50 mM HEPES, pH 7.4). Reactions were carried out in the absence or presence of increasing concentrations of unlabeled naloxone. All reactions were conducted in 96-deep well polypropylene plates for 2 hours at room temperature. Binding reactions were terminated by rapid filtration onto 96-well Unifilter GF/C filter plates (Perkin Elmer, Shelton, Conn.), presoaked in 0.5% polyethylenimine using a 96-well tissue harvester (Perkin Elmer, Shelton, Conn.) followed by performing three filtration washes with 500 μl of ice-cold binding buffer. Filter plates were subsequently dried at 50° C. for 2-3 hours. BetaScint scintillation cocktail (Perkin Elmer, Shelton, Conn.) was added (50 μl/well), and plates were counted using a Packard Top-Count for 1 min/well. The data were analyzed using the one-site competition curve fitting functions in GraphPad PRISM™ v. 3.0 or higher (San Diego, Calif.), or an in-house function for one-site competition curve-fitting.
(§1) In TABLE 1, binding affinity of certain Compounds of the Invention to the μ- and κ-opioid receptors was determined as described above.

κ opioid receptor [2] = target: T2, κ opioid receptor (Homo sapiens (Human), UniProt P41145); experiment: κ-opioid receptor radioligand dose-displacement binding assay ([3H]-U69,593); settings: binding affinity
Protocol: Membranes from HEK-293 cells, CHO or U-2 OS cells expressing the recombinant human κ opioid receptor (κ) were prepared by lysing cells in ice cold hypotonic buffer (2.5 mM MgCl2, 50 mM HEPES, pH 7.4) (10 mL/10 cm dish) followed by homogenization with a tissue grinder/Teflon pestle. Membranes were collected by centrifugation at 30,000×g for 15 min at 4° C. and pellets were resuspended in hypotonic buffer to a final concentration of 1-3 mg/mL. Protein concentrations were determined using the BioRad protein assay reagent with bovine serum albumen as standard. Aliquots of κ receptor membranes were stored at −80° C.
Radioligand dose displacement assays used 0.4 nM [^3H]-U69,593 (GE Healthcare, Piscataway, N.J.; 40 Ci/mmole) with 15 μg membrane protein (recombinant κ opioid receptor expressed in HEK 293 cells; in-house prep) in a final volume of 200 μl binding buffer (5% DMSO, 50 mM Trizma base, pH 7.4). Non-specific binding was determined in the presence of 10 μM unlabeled naloxone or U69,593. All reactions were performed in 96-well polypropylene plates for 1 hour at a temperature of about 25° C. Binding reactions were terminated by rapid filtration onto 96-well Unifilter GF/C filter plates (Perkin Elmer, Shelton, Conn.) presoaked in 0.5% polyethylenimine (Sigma). Harvesting was performed using a 96-well tissue harvester (Perkin Elmer, Shelton, Conn.) followed by five filtration washes with 200 μl ice-cold binding buffer. Filter plates were subsequently dried at 50° C. for 1-2 hours. Fifty μl/well scintillation cocktail (Perkin Elmer, Shelton, Conn.) was added and plates were counted in a Packard Top-Count for 1 min/well.
as §1

μ-opioid receptor [3] = target: T1, μ-opioid receptor; experiment: μ-opioid receptor [35S]GTPγS functional assay; assay type: biochemical; settings: for EC50: GTPγS functional assay using U-2 OS cells; for Emax: maximal effect relative to DAMGO, U-2 OS cells
Protocol: [^35S]GTPγS functional assays were conducted using freshly thawed p-receptor membranes prepared in-house from a cell line expressing recombinant μ opioid receptor in a HEK-293, CHO or U-2 OS cell background, or purchased from a commercial source (Perkin Elmer, Shelton. Conn.; or DiscovRx, Fremont, Calif.). Assay reactions were prepared by sequentially adding the following reagents to binding buffer (100 mM NaCl, 10 mM MgCl2, 20 mM HEPES, pH 7.4) on ice (final concentrations indicated): membrane protein ([…]), saponin ([…]), GDP ([…]) and [^35S]GTPγS (0.20 nM; Perkin Elmer, Shelton, Conn.). The prepared membrane solution (190 μl/well) was transferred to 96-shallow well polypropylene plates containing 10 μl of 20× concentrated stock solutions of the agonist [D-Ala^2, N-methyl-Phe^4 Gly-ol^5]-enkephalin (DAMGO) prepared in dimethyl sulfoxide (DMSO). Plates were incubated for 30 min at about 25° C. with shaking. Reactions were terminated by rapid filtration onto 96-well Unifilter GF/B filter plates (Perkin Elmer, Shelton, Conn.) using a 96-well tissue harvester (Perkin Elmer, Shelton, Conn.) followed by three filtration washes with 200 μl of ice-cold wash buffer (10 mM NaH2PO4, 10 mM Na2HPO4, pH 7.4). Filter plates were subsequently dried at 50° C. for 2-3 hours. BetaScint scintillation cocktail (Perkin Elmer, Shelton, Conn.) was added (50 μl/well) and plates were counted using a Packard Top-Count for 1 min/well. Data were analyzed using the sigmoidal dose-response curve fitting functions in GraphPad PRISM v. 3.0, or an in-house function for non-linear, sigmoidal dose-response curve-fitting.
μ GTP EC50 is the concentration of a compound providing 50% of the maximal response for the compound at a […] receptor.
μ GTP Emax (%) is the maximal effect elicited by a compound relative to the effect elicited by DAMGO, a standard μ agonist. Generally, the μ GTP Emax (%) value measures the efficacy of a compound to treat or prevent pain or other Conditions.
(§2) In TABLE 2, activity response of certain Compounds of the Invention to the μ- and κ-opioid receptors was determined as described above for functional assays using U-2 OS cells.

κ opioid receptor [4] = target: T2, κ opioid receptor; experiment: κ-opioid receptor [35S]GTPγS functional assay; assay type: biochemical; settings: for EC50: GTPγS functional assay using U-2 OS cells; for Emax: maximal effect relative to U69,593, U-2 OS cells
Protocol: Functional [^35S]GTPγS binding assays were conducted as follows. κ opioid receptor membrane solution was prepared by sequentially adding final concentrations of 0.026 μg/μl κ membrane protein (in-house), 10 μg/mL saponin, 3 μM GDP and 0.20 nM [^35S]GTPγS to binding buffer (100 mM NaCl, 10 mM MgCl2, 20 mM HEPES, pH 7.4) on ice. The prepared membrane solution (190 μl/well) was transferred to 96-shallow well polypropylene plates containing 10 μl of 20× concentrated stock solutions of agonist prepared in DMSO. Plates were incubated for 30 min at a temperature of about 25° C. with shaking. Reactions were terminated by rapid filtration onto 96-well Unifilter GF/B filter plates (Perkin Elmer, Shelton, Conn.) using a 96-well tissue harvester (Packard) and followed by three filtration washes with 200 μl ice-cold binding buffer (10 mM NaH2PO4, 10 mM Na2HPO4, pH 7.4). Filter plates were subsequently dried at 50° C. for 2-3 hours. Fifty μl/well scintillation cocktail (Perkin Elmer, Shelton, Conn.) was added and plates were counted in a Packard Top-Count for 1 min/well.
κ GTP EC50 is the concentration of a compound providing 50% of the maximal response for the compound at a κ receptor.
κ GTP Emax (%) is the maximal effect elicited by a compound relative to the effect elicited by U69,593.
as §2

[5] = read-out: Opioid Receptor Ki (nM) μ

For `COc1ccc2c(c1)[C@]13CCN(CC4CC4)C[C@]1(CC[C@@]1(C3)NC(=O)NC1=O)C2` [Compound 2, (3S,4aR,9,aR)-11-(cyclopropylmethyl)-6-methoxy-1,2,4,9-tetrahydrospiro[4a,9a-(ethanoiminomethano)fluorene-3,4′-imidazolidine]-2′,5′-dione], the Ki (μ-opioid receptor [1]; [5]) was 6250 ± 874 nM and the Ki (κ opioid receptor [2]) was 4760 ± 1110 nM.

`COc1ccc2c(c1)[C@]13CCN(CC4CC4)C[C@]1(CC[C@]1(C3)NC(=O)NC1=O)C2` [Compound 3] showed a Ki (μ-opioid receptor [1]; read-out: Opioid Receptor Ki μ) greater than 20000 nM and a Ki (κ opioid receptor [2]) of 8410 ± 650 nM.

Molecule `COC(=O)c1cc2c([nH]c1=O)C[C@@]13CCN(CC4CC4)C[C@@]1(Cc1ccc(OC)cc13)C2` [Compound 5, (5aS,10bR)-methyl 14-(cyclopropylmethyl)-9-methoxy-2-oxo-2,5,6,11-tetrahydro-1H-10b,5a-(ethanoiminomethano)indeno[2,1-g]quinoline-3-carboxylate] has a Ki (μ-opioid receptor [1]; [5]) of 9550 ± 1870 nM and a Ki (κ opioid receptor [2]) of 3600 ± 882 nM.

Molecule `COc1ccc2c(c1)[C@]13CCN(CC4CC4)C[C@@]1(C2)Cc1cc(C(N)=O)c(=O)[nH]c1C3` [Compound 6, (5aS,10bR)-14-(cyclopropylmethyl)-9-methoxy-2-oxo-2,5,6,11-tetrahydro-1H-10b,5a-(ethanoiminomethano)indeno[2,1-g]quinoline-3-carboxamide] has a Ki (μ-opioid receptor [1]; [5]) of 15600 nM and a Ki (κ opioid receptor [2]) of 4280 ± 1090 nM.

In the case of `NC(=O)c1cc2c([nH]c1=O)C[C@@]13CCN(CC4CC4)C[C@@]1(Cc1ccc(O)cc13)C2` [Compound 7, (5aS,10bR)-14-(cyclopropylmethyl)-9-hydroxy-2-oxo-2,5,6,11-tetrabydro-1H-10b,5a-(ethanoiminomethano)indeno[2,1-g]quinoline-3-carboxamide], the Ki (μ-opioid receptor [1]; [5]) is reported as 770 ± 102 nM, the Ki (κ opioid receptor [2]) is reported as 148 ± 39.8 nM and the EC50 (μ-opioid receptor [3]) is reported as 0.413 ± 0.0664 µM. It also gave an Emax (μ-opioid receptor [3]) of 19.3 ± 3.18%, an EC50 (κ opioid receptor [4]) of 0.57 ± 0.0854 µM and an Emax (κ opioid receptor [4]) of 103 ± 5.21%.

Molecule `O=C1NC(=O)[C@@]2(CC[C@@]34Cc5ccc(O)cc5[C@@]3(CCN(CC3CC3)C4)C2)N1` [Compound 8, (3S,4aR,9aR)-11-(cyclopropylmethyl)-6-hydroxy-1,2,4,9-tetrahydrospiro[4a,9a-(ethanoiminomethano)fluorene-3,4′-imidazolidine]-2′,5′-dione] has a Ki (μ-opioid receptor [1]; [5]) of 472 ± 93 nM, a Ki (κ opioid receptor [2]) of 72.5 ± 18.3 nM and an EC50 (μ-opioid receptor [3]) of 0.414 ± 0.0628 µM. For the same molecule, the Emax (μ-opioid receptor [3]) was 86.7 ± 1.67%, the EC50 (κ opioid receptor [4]) was 0.384 ± 0.0369 µM and the Emax (κ opioid receptor [4]) was 119 ± 4.41%.

Work on `O=C1NC(=O)[C@]2(CC[C@@]34Cc5ccc(O)cc5[C@@]3(CCN(CC3CC3)C4)C2)N1` [Compound 9, (3R,4aR,9aR)-11-(cyclopropylmethyl)-6-hydroxy-1,2,4,9-tetrahydrospiro[4a,9a-(ethanoiminomethano)fluorene-3,4′-imidazolidine]-2′,5′-dione] yielded a Ki (μ-opioid receptor [1]; [5]) of 676 ± 74.1 nM, a Ki (κ opioid receptor [2]) of 148 ± 25.2 nM and an EC50 (μ-opioid receptor [3]) of 0.309 ± 0.0363 µM. It also gave an Emax (μ-opioid receptor [3]) of 94 ± 3.06%, an EC50 (κ opioid receptor [4]) of 0.3188 ± 0.00138 µM and an Emax (κ opioid receptor [4]) of 109 ± 7.09%.
